Results published in US4649137A, “2-acylaminomethyl-1,4-benzodiazepine compounds, the preparation thereof, and pharmaceutical compositions containing them” (Kali-Chemie Pharma GmbH, priority 1981, dated 1987).

Key:
mouse [1] = assay: Determination of the minimum toxic dose; type: in vivo, mouse (male); details: p.o.; maximum dose 300 mg/kg; symptoms recorded for 24 hours
Method: DETERMINATION OF THE MINIMUM TOXIC DOSE
Maximum doses of 300 mg/kg. of the test substance are administered orally to male mice of 20-25 g. weight. The animals are observed carefully for toxicity symptoms for 3 hours. In addition, all symptoms and cases of death are recorded for a period of 24 hours after administration. Accompanying symptoms are also observed and recorded. If death- or toxic symptoms are observed, decreasing doses are administered to additional mice until no more toxic symptoms occur. The lowest dose which induces toxic symptoms is reported as the minimum toxic dose.

rat = assay: Arthritis pain test on the rat (inhibition of the arthritis pain); type: in vivo, rat (male, strain OFA); details: p.o., 3 hours after oral dosage
Method: ARTHRITIS PAIN TEST ON THE RAT
Male rats of the strain OFA with a weight of 160-180 g. are anaesthetised by administration of 20 mg./kg. i.p. of phenobarbital sodium. 0.1 ml. of a suspension of Mycobacterium Smegmae (S1043) in paraffin oil (0.6 mg. of Mycobact./0.1 ml. of oil) are injected intracutaneously into the left rear paw. 14 days later, when a marked secondary arthritis has developed, particularly in the right rear paw, the effects of the test substances are investigated. 30 minutes before administration of the test substances, a control measurement in undertaken in which the ankle joint of the right rear paw is flexed three times and the number of sounds given out is counted. […] 3 hours after oral dosage of the test substance, the flexion procedure is repeated. Animals which either give out sound only once or not at all are regarded as being protected against pain. Between 9 and 20 rats are used per dose and the ED50 (95% confidence range) is determined by the method of Litchfield and Wilcoxon) (1949). The ED50 is designated at that dose which produces protection in 50% of the animals treated.

mouse [2] = assay: Tail flick ray test on the mouse; type: in vivo; details: sc, 0.5 h, s.c., 30 minutes after administration
Method: TAIL FLICK RAY TEST ON THE MOUSE
The method is based on the procedure described by D'Amour and Smith (1941). However, non-fasting male and female mice having body weights of 16-25 g. are used instead of rats. 30 minutes before treatment with the test substance, each mouse is placed alone in a cylindrical vessel such that it cannot turn round and move forward. Its tail, lying in a narrow groove, projects out of the vessel. A particular point on the tail of each animal (at about 35 mm. from the root of the tail) is subjected to the radiant heat from a lamp of known intensity and temperature which is situated directly beneath the tail. The time in seconds required by the mouse to flick the tail out of the ray of light is determined twice, once 30 and once 15 minutes before subcutaneous administration of the test substance (10 mg./kg.). The mice for which the reaction times deviate by more than 25% are eliminated. The reaction times are again measured 15 and 30 minutes after treatment and an increase in the reaction times of more than 75% of the average values before treatment of the same mouse is regarded as an analgesic effect. The ED50 (95% confidence range) of each test substance 30 minutes after administration is regarded as that dose which increases the reaction time before treatment by more than 75% in 50% of the animals. The calculation is carried out in accordance with the method of Litchfield and Wilcoxon (1949).

| SMILES | Minimum toxic dose in the mouse (mouse [1]) [mg/kg] | ED50 (rat) [mg/kg] | ED50 (mouse [2]) [mg/kg] |
| --- | --- | --- | --- |
| CN1c2ccccc2C(c2ccc(Cl)s2)=NCC1CNC(=O)c1ccc(C#N)cc1 (stereo not shown) [Example 84] | > 300 | 18 |  |
| Cc1ccsc1C1=NCC(CNC(=O)c2ccoc2)N(C)c2ccccc21 (stereo not shown) [Example 87] |  | 18 to 32 | 2.6 |
| CN1c2ccccc2C(c2ccsc2)=NCC1CNC(=O)c1ccoc1 (stereo not shown) [Example 1, 1-Methyl-2-[(furan-3-carbonyl)-aminomethyl]-5-(3'-thienyl)-1H-2,3-dihydro-1,4-benzodiazepine] | 200 | 32 to 56 | 1 |
| COc1ccc2c(c1)N(C)C(CNC(=O)c1ccccc1)CN=C2c1ccsc1 (stereo not shown) [Example 5, 8-Methoxy-1-methyl-2-benzoylaminomethyl-5-(3'-thienyl)-1H-2,3-dihydro-1,4-benzodiazepine] | 300 | ~10 | 2.7 |
| CN1c2ccccc2C(c2ccsc2)=NCC1CNC(=O)c1ccccc1 (stereo not shown) [Example 11] | 300 | ~2 | 2.8 |
| COc1ccc2c(c1)N(C)C(CNC(=O)c1ccc(C(F)(F)F)cc1)CN=C2c1ccsc1 (stereo not shown) [Example 12] | > 300 | 32 |  |
| CN1c2ccccc2C(c2ccsc2)=NCC1CNC(=O)c1ccc(C#N)cc1 (stereo not shown) [Example 7, 1-Methyl-2-[(4-cyanobenzoyl)-aminomethyl]-5-(3'-thienyl)-1H-2,3-dihydro-1,4-benzodiazepine] | > 300 | 8.5 |  |
| CN1c2cc3c(cc2C(c2ccsc2)=NCC1CNC(=O)c1cccs1)OCO3 (stereo not shown) [Example 14] | 100 | 32 to 56 | 5 |
| COc1ccc2c(c1)N(C)C(CNC(=O)c1ccsc1)CN=C2c1ccsc1 (stereo not shown) [Example 13] | 200 | 32 to 56 | 10 |
| CN1c2ccccc2C(c2ccsc2)=NCC1CNC(=O)c1ccc(C(F)(F)F)cc1 (stereo not shown) [Example 6, 1-Methyl-2-[(4'-trifluoromethylbenzoyl)-aminomethyl]-5-(3'-thienyl)-1H-2,3-dihydro-1,4-benzodiazepine] | 300 | 2 |  |
| Cc1ccsc1C1=NCC(CNC(=O)c2ccc(C#N)cc2)N(C)c2ccccc21 (stereo not shown) [Example 89] |  | 10 |  |
| Cc1ccsc1C1=NCC(CNC(=O)c2ccccc2)N(C)c2ccccc21 (stereo not shown) [Example 88] |  | 18 to 32 | 8.3 |
